≈ marks a conversion by molar mass, not a printed value.
Experiments:
[1] = Clearance in mouse at 400 mg/kg, ip; type: ADME, organism-based; settings: in vivo
[2] = Apparent permeability across basolateral to apical side in human Caco-2 cells; type: ADME, cell-based
[3] = Stability in human plasma assessed as half life; type: ADME, cell-free
[4] = Apparent permeability across apical to basolateral side in human Caco-2 cells; type: ADME, cell-based
[5] = Stability in porcine plasma assessed as half life; type: ADME, cell-free, Sus scrofa; settings: pig
[6] = Stability in dog liver microsomes assessed as half life; type: ADME, Canis lupus familiaris, Microsome
[7] = Half life in mouse at 400 mg/kg, ip; type: ADME, organism-based; settings: in vivo
[8] = Solubility of compound in PBS at pH 7.4 at 37 degreeC measured after 24 hrs; type: physicochemical
[9] = Solubility of compound in HCl at pH 1.2 at 37 degreeC measured after 24 hrs; type: physicochemical
[10] = Tmax in mouse at 400 mg/kg, ip; type: ADME, organism-based; settings: in vivo
[11] = Stability in mouse plasma assessed as half life; type: ADME, cell-free
[12] = Stability in rat plasma assessed as half life; type: ADME, cell-free
[13] = AUC in mouse at 400 mg/kg, ip; type: ADME, organism-based; design: dose 400 mg/kg, route ip; settings: in vivo
[14] = Stability in human liver microsomes assessed as half life; type: ADME, Microsome
[15] = Stability in rat liver microsomes assessed as half life; type: ADME, Microsome
[16] = Cmax in mouse at 400 mg/kg, ip; type: ADME, organism-based; design: dose 400 mg/kg, route ip; settings: in vivo
[17] = Lipophilicity, logD of the compound at 37 degreeC; type: physicochemical; settings: octanol/water
[18] = molecular target: T1, Polyamine deacetylase HDAC10 (Homo sapiens, UniProt Q969S8); assay: Inhibition of human HDAC10 using FAM-labeled acetylated peptide as substrate incubated for 17 hrs by fluorescence based assay
T1 sequence (Q969S8 whole entry): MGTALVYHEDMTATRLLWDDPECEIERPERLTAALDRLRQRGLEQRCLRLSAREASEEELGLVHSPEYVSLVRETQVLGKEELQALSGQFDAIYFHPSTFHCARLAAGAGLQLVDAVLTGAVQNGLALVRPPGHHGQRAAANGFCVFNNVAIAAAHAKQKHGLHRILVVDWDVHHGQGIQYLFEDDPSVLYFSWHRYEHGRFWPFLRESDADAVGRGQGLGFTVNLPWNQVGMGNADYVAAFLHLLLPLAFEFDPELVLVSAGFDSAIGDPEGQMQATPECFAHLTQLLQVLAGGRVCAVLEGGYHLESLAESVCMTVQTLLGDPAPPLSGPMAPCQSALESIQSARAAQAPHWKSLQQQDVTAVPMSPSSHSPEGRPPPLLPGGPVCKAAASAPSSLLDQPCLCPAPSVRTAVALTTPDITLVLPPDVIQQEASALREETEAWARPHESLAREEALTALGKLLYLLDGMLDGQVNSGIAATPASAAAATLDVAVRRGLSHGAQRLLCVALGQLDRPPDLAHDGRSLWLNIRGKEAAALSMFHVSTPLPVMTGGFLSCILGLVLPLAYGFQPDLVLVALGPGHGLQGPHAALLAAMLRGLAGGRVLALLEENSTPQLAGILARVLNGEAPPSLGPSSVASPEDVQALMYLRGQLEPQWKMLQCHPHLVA

[19] = molecular target: T2, Histone deacetylase 1 (Homo sapiens, UniProt Q13547); assay: Inhibition of human HDAC1 using FAM-labeled acetylated peptide as substrate incubated for 17 hrs by fluorescence based assay
T2 sequence (Q13547 whole entry): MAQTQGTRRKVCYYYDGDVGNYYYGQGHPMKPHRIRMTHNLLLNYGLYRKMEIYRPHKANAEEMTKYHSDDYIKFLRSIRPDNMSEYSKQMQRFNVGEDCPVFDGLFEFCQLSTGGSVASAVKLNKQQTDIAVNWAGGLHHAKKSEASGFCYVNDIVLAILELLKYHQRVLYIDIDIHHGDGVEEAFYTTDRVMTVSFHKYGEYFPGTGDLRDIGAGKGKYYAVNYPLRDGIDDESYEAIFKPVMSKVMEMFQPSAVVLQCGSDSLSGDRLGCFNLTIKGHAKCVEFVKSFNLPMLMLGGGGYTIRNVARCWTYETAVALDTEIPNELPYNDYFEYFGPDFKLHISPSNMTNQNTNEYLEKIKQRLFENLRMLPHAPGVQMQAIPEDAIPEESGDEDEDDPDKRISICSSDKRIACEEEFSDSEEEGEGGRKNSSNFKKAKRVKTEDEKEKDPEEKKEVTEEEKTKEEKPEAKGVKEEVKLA

[20] = molecular target: T3, Histone deacetylase 8 (Homo sapiens, UniProt Q9BY41); assay: Inhibition of human HDAC8 using FAM-labeled acetylated peptide as substrate incubated for 17 hrs by fluorescence based assay
T3 sequence (Q9BY41 whole entry): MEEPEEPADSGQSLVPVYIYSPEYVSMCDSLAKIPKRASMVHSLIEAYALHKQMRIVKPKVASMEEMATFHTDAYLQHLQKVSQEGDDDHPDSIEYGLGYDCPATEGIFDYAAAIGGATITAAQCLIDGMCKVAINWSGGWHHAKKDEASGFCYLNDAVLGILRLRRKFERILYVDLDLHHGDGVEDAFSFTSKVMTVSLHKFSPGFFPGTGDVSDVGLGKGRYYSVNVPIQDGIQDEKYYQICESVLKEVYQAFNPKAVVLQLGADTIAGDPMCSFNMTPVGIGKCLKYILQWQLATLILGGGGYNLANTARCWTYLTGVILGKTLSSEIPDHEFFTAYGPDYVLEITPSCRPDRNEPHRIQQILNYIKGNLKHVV

[21] = molecular target: T4, Protein deacetylase HDAC6 (Homo sapiens, UniProt Q9UBN7); assay: Inhibition of human HDAC6 using FAM-labeled acetylated peptide as substrate incubated for 17 hrs by fluorescence based assay
T4 sequence (Q9UBN7 whole entry): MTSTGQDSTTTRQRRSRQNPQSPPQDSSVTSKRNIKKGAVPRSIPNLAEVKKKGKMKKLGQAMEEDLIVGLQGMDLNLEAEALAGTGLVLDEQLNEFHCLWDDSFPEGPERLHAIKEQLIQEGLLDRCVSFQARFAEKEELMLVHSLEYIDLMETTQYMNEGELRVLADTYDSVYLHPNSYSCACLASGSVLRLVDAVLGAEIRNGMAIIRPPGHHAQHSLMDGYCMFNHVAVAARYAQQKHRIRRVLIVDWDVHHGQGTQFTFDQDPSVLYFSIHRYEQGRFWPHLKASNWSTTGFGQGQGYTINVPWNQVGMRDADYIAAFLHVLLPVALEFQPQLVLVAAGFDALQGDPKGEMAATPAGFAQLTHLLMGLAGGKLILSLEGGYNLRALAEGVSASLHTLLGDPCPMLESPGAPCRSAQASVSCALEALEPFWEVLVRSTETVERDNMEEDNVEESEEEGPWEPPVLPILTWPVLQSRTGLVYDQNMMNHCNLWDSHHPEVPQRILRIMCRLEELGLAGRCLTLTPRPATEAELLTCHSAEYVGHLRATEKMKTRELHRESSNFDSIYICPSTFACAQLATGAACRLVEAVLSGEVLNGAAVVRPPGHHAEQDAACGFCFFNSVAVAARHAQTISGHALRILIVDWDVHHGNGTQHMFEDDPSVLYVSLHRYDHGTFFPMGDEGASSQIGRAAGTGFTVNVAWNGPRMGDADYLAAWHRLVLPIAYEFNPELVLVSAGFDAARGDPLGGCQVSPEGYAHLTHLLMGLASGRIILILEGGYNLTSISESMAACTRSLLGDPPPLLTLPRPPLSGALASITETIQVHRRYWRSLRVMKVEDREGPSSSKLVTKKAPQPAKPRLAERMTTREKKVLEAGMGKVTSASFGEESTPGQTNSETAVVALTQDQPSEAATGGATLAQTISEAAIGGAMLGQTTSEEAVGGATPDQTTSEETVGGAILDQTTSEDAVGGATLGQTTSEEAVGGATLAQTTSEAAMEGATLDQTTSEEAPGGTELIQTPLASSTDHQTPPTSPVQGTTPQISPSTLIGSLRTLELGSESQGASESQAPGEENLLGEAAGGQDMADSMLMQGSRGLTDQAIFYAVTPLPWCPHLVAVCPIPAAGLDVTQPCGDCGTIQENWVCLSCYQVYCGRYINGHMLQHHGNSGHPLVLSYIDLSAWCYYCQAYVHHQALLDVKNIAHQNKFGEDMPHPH

[22] = molecular target: T5, Histone deacetylase 2 (Homo sapiens, UniProt Q92769); assay: Inhibition of human HDAC2 using FAM-labeled acetylated peptide as substrate incubated for 17 hrs by fluorescence based assay
T5 sequence (Q92769 whole entry): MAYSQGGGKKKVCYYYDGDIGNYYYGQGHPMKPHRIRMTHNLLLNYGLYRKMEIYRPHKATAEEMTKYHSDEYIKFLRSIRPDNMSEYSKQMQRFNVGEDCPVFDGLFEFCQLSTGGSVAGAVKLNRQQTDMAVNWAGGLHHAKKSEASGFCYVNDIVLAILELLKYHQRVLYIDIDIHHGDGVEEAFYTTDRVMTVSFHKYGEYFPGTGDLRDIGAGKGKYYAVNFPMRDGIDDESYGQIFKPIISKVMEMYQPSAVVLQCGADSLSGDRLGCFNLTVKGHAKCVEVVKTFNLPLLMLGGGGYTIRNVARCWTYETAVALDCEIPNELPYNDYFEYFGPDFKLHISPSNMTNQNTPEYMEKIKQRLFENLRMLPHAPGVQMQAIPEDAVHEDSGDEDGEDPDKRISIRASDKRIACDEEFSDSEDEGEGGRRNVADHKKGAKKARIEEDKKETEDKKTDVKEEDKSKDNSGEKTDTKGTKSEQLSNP

[23] = molecular target: T2, Histone deacetylase 1; assay: Inhibition of human HDAC1
[24] = molecular target: T4, Protein deacetylase HDAC6; assay: Inhibition of human full length recombinant HDAC6 expressed in baculovirus infected Sf9 cells using RHKKAc as substrate preincubated for 5 to 10 mins followed by substrate addition and measured after 2 hrs by fluorescence based analysis
[25] = molecular target: T2, Histone deacetylase 1; assay: Inhibition of human full length recombinant HDAC1 expressed in baculovirus infected Sf9 cells using RHKKAc as substrate preincubated for 5 to 10 mins followed by substrate addition and measured after 2 hrs by fluorescence based analysis
[26] = molecular target: T5, Histone deacetylase 2; assay: Inhibition of human full length recombinant HDAC2 expressed in baculovirus infected Sf9 cells using RHKKAc as substrate preincubated for 5 to 10 mins followed by substrate addition and measured after 2 hrs by fluorescence based analysis
[27] = molecular target: Histone deacetylase; assay: Inhibition of HDAC (unknown origin); type: protein assay, Homo sapiens
[28] = molecular target: Histone deacetylase 4 (Homo sapiens, UniProt P56524); assay: Inhibition of HDAC4 (unknown origin)
Histone deacetylase 4, sequence (P56524 whole entry): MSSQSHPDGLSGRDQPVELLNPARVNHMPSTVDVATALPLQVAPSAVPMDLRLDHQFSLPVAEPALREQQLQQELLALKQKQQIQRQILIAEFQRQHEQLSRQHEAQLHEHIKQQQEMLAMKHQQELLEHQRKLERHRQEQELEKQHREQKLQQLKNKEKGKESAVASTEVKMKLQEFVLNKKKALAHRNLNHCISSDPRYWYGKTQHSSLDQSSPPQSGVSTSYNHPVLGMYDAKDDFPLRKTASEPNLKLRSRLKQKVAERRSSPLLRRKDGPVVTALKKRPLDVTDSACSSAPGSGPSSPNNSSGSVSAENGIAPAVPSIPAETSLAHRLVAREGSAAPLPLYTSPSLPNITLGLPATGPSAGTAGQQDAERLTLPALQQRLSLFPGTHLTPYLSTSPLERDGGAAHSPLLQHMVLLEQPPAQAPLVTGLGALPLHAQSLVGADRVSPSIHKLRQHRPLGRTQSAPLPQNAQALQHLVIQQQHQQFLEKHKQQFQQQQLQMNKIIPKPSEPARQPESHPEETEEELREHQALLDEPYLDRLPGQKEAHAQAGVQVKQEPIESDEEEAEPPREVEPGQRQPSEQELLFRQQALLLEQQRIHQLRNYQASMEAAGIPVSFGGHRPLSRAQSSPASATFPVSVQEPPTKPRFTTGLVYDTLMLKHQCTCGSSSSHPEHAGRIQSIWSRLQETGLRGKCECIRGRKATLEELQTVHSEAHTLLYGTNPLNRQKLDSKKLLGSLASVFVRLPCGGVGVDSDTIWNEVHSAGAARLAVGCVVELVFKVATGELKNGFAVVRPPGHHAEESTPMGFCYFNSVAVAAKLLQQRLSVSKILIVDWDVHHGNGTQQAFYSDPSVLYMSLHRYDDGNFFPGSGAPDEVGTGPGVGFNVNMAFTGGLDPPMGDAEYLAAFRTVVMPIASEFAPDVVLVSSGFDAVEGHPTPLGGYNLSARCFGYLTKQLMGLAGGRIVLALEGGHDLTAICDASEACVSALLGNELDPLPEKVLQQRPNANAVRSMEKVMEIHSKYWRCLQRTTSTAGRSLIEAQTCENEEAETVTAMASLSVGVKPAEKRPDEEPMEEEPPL

[29] = molecular target: T1, Polyamine deacetylase HDAC10; assay: Inhibition of HDAC10 (unknown origin)

Row | SMILES | IC50 [24] [µM] | IC50 [25] [µM] | IC50 [26] [µM] | other results
1 | CN(C)c1ccc(C(=O)NCCCCCNC(=O)CS)cc1 |  |  |  | CL/F [1]: 81.2 mL/min; Papp B→A [2]: 10 ×10⁻⁶ cm/s; half-life [3]: 1.28 h; Papp A→B [4]: 7.33 ×10⁻⁶ cm/s; half-life [5]: 1.48 h; half-life [6]: 0.717 h; half-life [7]: 1.98 h; solubility at 24 h [8]: 120 µg/mL (≈ 371 µM); solubility at 24 h [9]: 1000 µg/mL (≈ 3090 µM); Tmax [10]: 0.5 h; half-life [11]: 2.88 h; half-life [12]: 1.65 h; AUC [13]: 4.23 µM·h; half-life [14]: 1.13 h; half-life [15]: 1.17 h; Cmax [16]: 1540 nM; logD [17]: 2.19
2 | N[C@@H](Cc1ccccc1)C(=O)Nc1ccccc1-c1ccc(NC(=O)CCCCCNC(=O)CS)cc1 |  |  |  | IC50 [18]: 7.22 µM; IC50 [19]: 2.76 µM; IC50 [20]: 5.19 µM; IC50 [21]: 0.45 µM; IC50 [22]: > 30 µM
3 | NCC(=O)Nc1ccccc1-c1ccc(NC(=O)CCCCCNC(=O)CS)cc1 |  |  |  | IC50 [18]: 7.43 µM; IC50 [19]: 3.96 µM; IC50 [20]: 6.03 µM; IC50 [21]: 0.39 µM; IC50 [22]: 16 µM
4 | O=C(CS)NCCCCCn1ccc2cc(Cl)c(Cl)cc21 |  |  |  | IC50 [23]: 7.9 µM
5 | Cc1onc(-c2ccccc2)c1/C=C/CCCCCNC(=O)CS | 3.5 | 28 |  | 
6 | Cc1onc(-c2ccccc2)c1C(=O)NCCCCCNC(=O)C(C)(C)S | > 30 | > 30 | > 30 | 
7 | Cc1onc(-c2ccccc2)c1/C=C\CCCCCNC(=O)CS | 4.8 | > 30 |  | 
8 | Cc1onc(-c2ccccc2)c1C(=O)NCCCCCNC(=O)[C@H](C)S | > 30 | > 30 | > 30 | 
9 | Cc1noc(-c2ccccc2)c1C#CCCCCNC(=O)C(C)(C)S | > 30 | > 30 | > 30 | 
10 | Cc1onc(-c2ccccc2)c1/C=C/c1ccc(CNC(=O)C(C)(C)S)cc1 | > 30 | > 30 | > 30 | 
11 | Cc1onc(-c2ccccc2)c1COCCCCCNC(=O)[C@@H](C)S | 0.83 | 1.5 |  | 
12 | Cc1onc(-c2ccccc2)c1COCCCCCNC(=O)[C@H](C)S | > 30 | > 30 |  | 
13 | Cc1noc(-c2ccccc2)c1C#CCCCCCNC(=O)C(C)(C)S | > 30 | > 30 | > 30 | 
14 | Cc1onc(-c2ccccc2)c1C=CCCCCCNC(=O)C(C)(C)S (mixture of isomers) | > 30 | > 30 | > 30 | 
15 | Cc1onc(-c2ccccc2)c1C=CCCCCCNC(=O)C(C)S (mixture of isomers) | 9.8 | > 30 | > 30 | 
16 | Cc1onc(-c2ccccc2)c1C=CCCCCCNC(=O)CS (mixture of isomers) | 2.7 | > 30 | > 30 | 
17 | CC(C)C(NC(=O)CCNC(=O)CS)C(=O)Nc1cnc2ccccc2c1 (racemic) |  |  |  | IC50 [27]: 25.1 µM
18 | Cc1noc(-c2cccc(F)c2)c1C#CCCCCCNC(=O)C(C)S (racemic) | 2.6 | 3.7 | 9.4 | 
19 | Cc1onc(-c2ccccc2)c1C(=O)NCCCCCNC(=O)C(C)S (racemic) | 1.1 | > 30 | > 30 | 
20 | Cc1onc(-c2ccccc2)c1/C=C/c1ccc(CNC(=O)C(C)S)cc1 (racemic) | > 30 | > 30 | > 30 | 
21 | Cc1noc(-c2ccccc2)c1C#CCCCCCNC(=O)C(C)S (racemic) | 2 | 2.7 | 7.5 | 
22 | CC(C)C(NC(=O)CCCNC(=O)CS)C(=O)Nc1cnc2ccccc2c1 (racemic) |  |  |  | IC50 [27]: 3.02 µM
23 | Cc1onc(-c2ccccc2)c1COCCCCCNC(=O)C(C)S (racemic) | 0.85 | 9.6 | 14 | 
24 | O=C(/C=C/c1cccc(S(=O)(=O)Nc2ccccc2)c1)NO [BELINOSTAT] |  |  |  | IC50 [28]: 1.24 µM; IC50 [29]: 0.031 µM
25 | O=C(CCCCCCC(=O)Nc1ccccc1)NO [VORINOSTAT] |  |  |  | Papp B→A [2]: 6.33 ×10⁻⁶ cm/s; Papp A→B [4]: 3 ×10⁻⁶ cm/s
